Measured values: patent publication EP2433636A1, “Treatment of Malignant Diseases” (Medizinische Universität Wien, priority 2010, dated 2012)
Entries after “also recorded” stand apart in the source; their conditions may differ.

Experiments:
Rac 1, 2, 3 = Rac 1, 2, 3 activation assay (G-LISA) after EGF stimulation; type: cell-based, Human
Experimental: Prostate cancer cells were seeded in 6-well plates and starved for 20 h. Cells were incubated with Rac1 small molecule inhibitor AZA1 for 4 h and then stimulated with 50 ng/ml epidermal growth factor (EGF) (R&D systems) for 1 min 30 sec and Rac activation was then measured with the G-LISA method (Rac 1, 2, 3 activation assay, colorimetric format, Cytoskeleton) according to the manufacturer's protocol.

CRL-2505 cells [1] = assay: Cell cycle distribution by flow cytometry (propidium iodide); type: cell-based, Human; details: 24 h; for sub G1 events (M1): untreated 1.47%
Experimental: (§1) One portion of the cells were then fixed with 70% ethanol for 1h at 4°C, washed with PBS and stained with propidium iodide (PI) puffer with 50 µg/ml DNase-free RNaseA. Cells in different cell cycle stages were determined. The rest of the cells were fixed with Cytofix fixation buffer (BD) for 30 min at 37°C, washed and then permeabilized with Perm buffer III (BD) and stained with Cyclin D1 (anti-human Cyclin D1 antibody set), phospho-Akt (anti-phospho-Akt pT308), phospho-ERK (anti-phospho-ERK1/2 pT202/pY204), phospho-JNK (anti-phospho-JNK pT183/pY185) and phospho-p38 antibodies (anti-phospho-p38 MAPK pT180/pY182) (the latter antibodies were purchased from BD Biosciences). […] were analyzed on a FACScan flow cytometer (BD Biosciences) with an argon laser tuned to 488 nm.

[2] = test system: CRL-2505 prostate cancer xenograft; assay: Survival study in prostate cancer xenograft bearing mice; type: in vivo, athymic nu/nu (nude) mice
Experimental: (§2) The experiments performed in this study were approved by the Institutional Animal Care and Use Committee at the Vienna Medical University. Pathogen-free, male, 5 week-old athymic nu/nu (nude) mice (Charles River, Sulzfeld, Germany) were weighed, coded and divided into experimental groups of (n = 10) at random. Mice were anesthetized (ketamine hydrochloride/xylazine at 55/7.5 mg/kg i.p.) and 15x10^6 CRL-2505 cells/100 µl PBS were injected s.c. into the left flank (Aharinejad et al., 2004). In a preliminary experiment mice received i.p. injections with 100 µg compound AZA1, AZA2, AZA3, or AZA4 in 100 µl 30% DMSO six days after cell injection for two weeks, control animals received 100 µl 30% DMSO/day (n = 5 for each group). In the main experiment, mice received i.p. injections with 100 µg compound AZA1 in 100 µl 30% DMSO six days after cell injection for two weeks, control animals received 100 µl 30% DMSO/day (n = 10 for each group). Tumour volumes were calculated as length x width^2/2. All animals were sacrificed on day 20.
The survival study was set for three months. Mice were treated with compound AZA1 (n = 10) or 30% DMSO (n = 10) and were euthanized when moribund.
Data were tested for normality using the Shapiro-Wilk test. Groups were compared by nonparametric analysis of variance (ANO-VA, Wilcoxon rank-sum test, Kruskal-Wallis test). All statistical tests were two-sided. The overall survival curves after treatment were analyzed by the Kaplan-Meier survival test. Statistical tests were performed with the use of SAS software (version 9.1.3) and Enterprise Guide (version 4.1, SAS Institute Inc., Cary, NC). Data are expressed as means ± SD. P values of < 0.05 were considered to indicate statistical significance.

[3] = test system: phospho-Pak1 (pS144)/Pak2 (pS141); assay: Western blot, phospho-Pak1/2; type: cell-based, Human; details: 2 µM for 24h, compared to controls
Experimental: (§3) Cell lysates were prepared (Aharinejad et al., Cancer Res. 62 (2002), 5317-5324 and Cancer Res. 64 (2004), 5378-5384) and 50 µg/lane separated by 9% SDS-PAGE prior to electrophoretic transfer onto Hybond C super (Amersham Pharmacia Biotech, Buckinghamshire, UK). The blots were probed with antibodies against PAK1 and phospho-Pak1 (pS144)/Pak2 (pS141) (Cell Signaling Technology, Danvers, MA) before incubation with horseradish peroxidase-conjugated secondary antibodies (Amersham Pharmacia Biotech). Proteins were immunodetected by chemiluminescence (Supersignal-West- Femto, Pierce, Rockford, IL) and quantified by Image Quant 5.0 software (Molecular Dynamics, Sunnyvale, CA).

phospho-ERK = assay: Phospho-ERK by flow cytometry; type: cell-based, Human; details: compared to untreated cells
Experimental: (§4) Tumour cells were seeded in 10 cm plates and allowed to adhere before treatment with 20 µM compound AZA1 for 4 h before trypsinization and washing with PBS.
as §1

phospho-Akt = assay: Phospho-Akt by flow cytometry; type: cell-based, Human
Experimental: as §1

Cyclin D1 = Cyclin D1 expression by flow cytometry; type: cell-based; details: Homo sapiens, 4 h; compared to untreated controls; read-out: Cyclin D1 fluorescence intensity, decrease
Experimental: as §4, §1

phospho-p38 = assay: Phospho-p38 by flow cytometry; type: cell-based, Human; details: compared to untreated cells
Experimental: as §4, §1

phospho-JNK = assay: Phospho-JNK by flow cytometry; type: cell-based, Human; details: compared to untreated cells
Experimental: as §4, §1

[4] = test system: CRL-2505 prostate cancer cells; assay: WST-1 cell proliferation assay; type: cell-based, Human; details: 72 hours of incubation with 1, 2, 5, 10 and 25 µM, compared to untreated cells
Experimental: Human CRL-2505 cells were seeded in 96-well plates at a density of 1x10^4 cells/well in culture medium. Cells were incubated with 1, 2, 5, 10, 25 µM compound AZA1. Cell proliferation was determined 24, 48 or 72 h after treatment using the WST-1 reagent (Roche Diagnostics, Indianapolis, IN) according to the manufacturer's protocol (Zins et al., Cancer Res. 67 (2007), 1038-1045). Each experiment was repeated three times.

CRL-2505 cells [5] = assay: Apoptosis by flow cytometry (Annexin V-FITC and PI); type: cell-based, Human; details: 3 h after treatment
Text: Then the effect of Rac1 inhibition on the cell cycle regulatory protein Cyclin D1 was examined. […] Next, flow cytometry was used to assess apoptosis in response to Rac1 inhibition.

Prostate cancer cells = assay: In vitro migration assay (Boyden chamber); type: cell-based, Human; details: compared to untreated controls
Experimental: Prostate cancer cells (5x10^4 in 1 ml DMEM with 10% FCS) were added to the top of each Boyden migration chamber (8-µm, 12-well plate format; BD Biosciences, Palo Alto, CA). Cells were incubated with 1, 2, and 5 µM of compound AZA1. […] Cells from the upper side of the membrane were removed with cotton swabs. The membranes were excised using a scalpel, inverted and transferred to a PBS filled tissue culture well. Membranes were then fixed in methanol for 2 min at -20°C. After washing in PBS, membranes were stained with 1 µg/ml 4'-6-Diamidino-2-phenylindole (DAPI) in PBS for 10 min at RT and washed again in PBS. Membranes were then embedded in Cityfluor (Cityfluor, Leicester, UK) on glass slides under coverslips. Representative sectors of migrated prostate cancer cells were counted under a fluorescence microscope. Each experiment was performed in triplicate.

Pak1 = assay: Western blot, Pak1 total protein; type: cell-based, Human; details: 2 µM for 24h, compared to controls
Experimental: as §3

[6] = test system: CRL-2505 prostate cancer xenograft; assay: Human prostate cancer xenograft tumour model; type: in vivo, athymic nu/nu (nude) mice
Experimental: as §2, with “In the main experiment, mice received i.p. injections with 100 µg compound AZA1 in 100 µl 30% DMSO six days after cell injection for two weeks, control animals received 100 µl 30% DMSO/day (n = 10 for each group).” left out, “All animals were sacrificed on day 20.” left out
On day 24, tumors were isolated, weighed and the animals were sacrificed. […] Primary antibodies were detected by sequential incubation with appropriate biotinylated secondary antibodies (Vector Laboratories, Burlingame, CA) and peroxidase conjugated streptavidin (Dako), developed with 3, 3'-diaminobenzidine (Vector Laboratories), counter-stained with haemalaun, dehydrated and mounted in DPX (Merck, Darmstadt, Germany) and digitalized images were generated.

[7] = Solubility test in 20-30% DMSO in water; type: physicochemical; details: appropriate if 1mM of the compound is soluble in 20-30% DMSO in water; 100 mM stock in 100% DMSO
Experimental: Compounds in powder form were dissolved in 100% DMSO to obtain 100 mM stock solutions of each of the compounds. Solubility of the compounds was then tested by preparing solutions in 20-30% DMSO in water. […] Compounds which were non-soluble in 30% DMSO were regarded as non-soluble. NSC23766 was always used as a reference compound.

PC-3 = details: Rac-hyperactive prostate cancer cells PC-3; cited from earlier work
[8] = test system: chronic myelogenous leukemia (CML); details: in vitro and in vivo; cited from earlier work

Cc1cc2cc(Nc3ccnc(Nc4ccc5[nH]c(C)cc5c4)n3)ccc2[nH]1 [AZA1, N*2*,N*4*-Bis-(2-methyl-1H-indol-5-yl)-pyrimidine-2,4-diamine]
Rac activity (Rac 1, 2, 3; CRL-2505 cells, 5, 10 and 20 µM, 4 h incubation, then 50 ng/ml EGF): reduced Rac activity significantly
Rac inhibiting activity, compared with the other screened compounds or NSC23766 (Rac 1, 2, 3; screening of the newly designed compounds, CRL-2505 cells after EGF treatment): improved Rac inhibiting activity when compared to NSC 23766; also recorded: most effective Rac inhibitor
sub G1 events (M1) (CRL-2505 cells [1]; 1 µM): 8.08%
sub G1 events (M1) (CRL-2505 cells [1]; 2 µM): 9.26%
G2/M (M4) phases (CRL-2505 cells [1]; 2 µM, untreated 32.25%): 28.44%
median time to death ([2]; after tumour cell grafting, control 39 ± 15 days): 46 ± 4 days
animals still alive ([2]; day 42, when the last control animal died): 60%
survival ([2]; vs. control mice, Kaplan-Meier): significantly increased
Pak1/2 phosphorylation at serine 144/141 [3]: significantly reduced
activity of ERK (phospho-ERK) (phospho-ERK): not affected
pAkt at different time points (phospho-Akt; 5 min to 90 min after treatment): decreased significantly
inhibition at 20 µM (phospho-Akt; Homo sapiens, 1 h, 20 µM for 60 min (Fig. 4A), compared to untreated cells, read-out: phospho-Akt levels, reduction): 24%
inhibition at 20 µM (Cyclin D1): 22%
phosphorylation of p38 (phospho-p38): significant decrease
phosphorylation of JNK (phospho-JNK): significant decrease
CRL-2505 cell proliferation [4]: significantly reduced
apoptosis (staining with Annexin V-FITC and PI) (CRL-2505 cells [5]): no significant signs of apoptosis
cancer cell migration (Prostate cancer cells; 1 µM): failed to reduce cancer cell migration
cancer cell migration (Prostate cancer cells; 2 µM, 20 h): significantly reduced migration
cancer cell migration (Prostate cancer cells; 5 µM, 20 h): significantly reduced migration
Pak1 expression (Pak1): not changed
ranking of AZA1 to AZA4 in the in vivo experiments (solubility, lack of toxicity, tumor-suppressive effects) ([6]; preliminary experiment, 100 µg i.p. in 30% DMSO, n = 5 per group): most potent agent
cell proliferation, staining with Ki-67 antibody ([6]; tumour tissue sections, day 24): reduced
solubility [7]: appropriate solubility

CCN(CC)CCCC(C)Nc1ncc(C)c(Nc2ccc3[nH]c(C)cc3c2)n1 (stereo not shown) [Compound 10, N*2*-(4-Diethylamino-1-methyl-butyl)-5-methyl-N*4*-(2-methyl-1H-indol-5-yl)-pyrimidine-2,4-diamine]
solubility [7]: appropriate solubility

c1cc(Nc2ccc3[nH]ccc3c2)nc(Nc2ccc3[nH]ccc3c2)n1 [Compound 41, N*2*,N*4*-Bis-(1H-indol-5-yl)-pyrimidine-2,4-diamine]
solubility [7]: appropriate solubility

c1cc(NCc2ccc3[nH]ccc3c2)nc(Nc2ccc3cc[nH]c3c2)n1 [Compound 55, N*2*-(1H-Indol-6-yl)-N*4*-(1H-indol-5-ylmethyl)-pyrimidine-2,4-diamine]
solubility [7]: appropriate solubility

CCN(CC)CCCC(C)Nc1nc(C)cc(Nc2ccc3nc(C)cc(N)c3c2)n1 (stereo not shown) [NSC23766, N6-(2-((4-(diethylamino)-1-methylbutyl)amino)-6-methyl-4-pyrimidinyl)-2-methyl-4,6-quinolinediamine]
anchorage independent growth (PC-3): able to inhibit
invasion (PC-3): able to inhibit
proliferation (PC-3): able to inhibit
proliferation of chronic myelogenous leukemia (CML) [8]: inhibited proliferation
